Measured values from patent US20110217260A1, “METHOD OF ENHANCING EYELASH AND EYE BROW HAIR GROWTH” (priority 2010, published 2011).
Read-outs that look alike come from different tables or passages of the source.

Legend:
[1] = tested on: cultured human hair follicles; conditions: cited from earlier work; for Effect on hair follicle growth in the absence of insulin: IGF-I and IGF-II 0.01-100 ng/ml; for Effect on hair follicle growth in the presence of insulin: 10 micrograms/ml insulin present; for Preventing hair follicles from entering a catagen-like state, compared with insulin / Rate of hair follicle growth compared with 10 micrograms/ml insulin: IGF-I 10 ng/ml, IGF-II 100 ng/ml
eyelash hair follicles = experiment: Eyelash hair growth / hair follicle transplant after topical application; format: in vivo; conditions: insulin alone, no second hypertrichosis agent
Excerpt: Step 4: Apply selected hair growth therapeutic agent if need be such as minoxidil or prostaglandin derived hair growth promoters which are already approved for hair growth of the eyelashes. […] Apply the clean dressing on the wound if need be.
Step 4: Apply selected hair growth therapeutic agent using PGF 2α, and analogues. Using these hair growing prostaglandins after pretreatment of the eye lids site with insulin results in much more rapid hair growth compared to when applied without insulin.

[2] = tested on: MCF-7 human breast cancer cells; conditions: MCF-7 cells; cited from earlier work
[3] = Excerpt: Discontinue the treatment till it disappears and restart the program. Latisse needs a prescription from a doctor in order to purchase Latisse like you would get any other medication. […] If one develops hypoglycemic symptoms due to any number of reasons, drink a sugar drink, eat a candy, or fruit cocktail.
indolent ulcers = experiment: Local insulin on indolent ulcers, wound healing; format: in vivo; conditions: insulin spray on indolent ulcers, unpublished data
Excerpt: We have used insulin for more than a decade to enhance the effectiveness of locally injected therapeutic agents specially cancers with chemotherapeutic agents with remarkable results. Our unpublished data also supports that the insulin spray on indolent ulcers anywhere in the body, including the oral (gums) and nasal cavity. […] Application of insulin soaked cotton swabs (1-3 units in normal saline) after teeth extraction induces rapid healing with reduced pain.

[4] = in vivo; cited from earlier work

| Substance | Effect on hair follicle growth in the absence of insulin [1] | Effect on hair follicle growth in the presence of insulin [1] | Preventing hair follicles from entering a catagen-like state, compared with insulin [1] | Rate of hair follicle growth compared with 10 micrograms/ml insulin [1] | Concentration giving maximum rates of hair follicle growth ([1]; in the absence of insulin) | also measured |
| --- | --- | --- | --- | --- | --- | --- |
| Growth hormone: growth hormone (somatotropin) | no effect on hair follicle growth or morphology | – | – | – | – | – |
| IGF-I: insulin-like growth factor 1, a growth hormone believed to work with androgens to initiate and maintain hair growth | stimulated hair follicle growth in a dose-dependent manner | no significant effect on hair follicle growth | more potent than insulin | identical | 10 ng/mL | – |
| IGF-II: Insulin-like growth factor II | stimulated hair follicle growth in a dose-dependent manner | no significant effect on hair follicle growth | more potent than insulin | unable to stimulate hair follicle growth to the same extent as insulin | 100 ng/mL | – |
| Insulin: hormone secreted by beta cells in the islets of Langerhans in the pancreas | – | – | – | – | – | Wound healing, uptake and growth of hair follicle transplant (eyelash hair follicles): enough to facilitate rapid wound healing along with uptake and growth of hair follicle transplant; Increase of the cytotoxic effect of methotrexate [2]: up to 10,000 fold; Hypoglycemia ([3]; after application of insulin to the eye lids): none of our cases developed hypoglycemia; Darkening of the eye lids ([3]; insulin alone): did not result in any appreciable darkening of the eye lids; Concentration giving maximum rates of hair follicle growth ([1]; follicles maintained in medium containing insulin): 10 micrograms/ml; Effect of insulin on hair follicle growth ([1]; range of 0.01 to 100 micrograms/ml): stimulated hair follicle growth in a dose-dependent manner; Wound healing (indolent ulcers): accelerated wound healing |
| Regular (R) humulin or novolin: Short-acting insulin | – | – | – | – | – | Duration of action [4]: 5 to 8 h; Onset of action [4]: 30 to 60 min; Peak effect [4]: 2 to 5 h |
